Data taken from patent publication US12465603B2, “Phthalazinone based modulators for the treatment of disease” (Soley Therapeutics, Inc., priority 2022, dated 2025).

Columns and labels:
[1] = tested on: A2058 (ATCC, CRL-11147) cells; test: Cell viability assay (Cell Titre Glo, 72 hours) in A2058 cells; assay type: cell-based; conditions: Homo sapiens
Method in brief: (§1)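 10-point dose response, top final concentration 30 μM, 1 in 3 dilutions; 5000 cells per well added directly to compound. Incubated 72 hours at 37° C, 5% CO2, then viability read by Cell Titre Glo luminescence and IC50 curves fitted.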

[2] = tested on: PA1 (ECACC, 90013101) cells; test: Cell viability assay (Cell Titre Glo, 72 hours) in PA1 cells; assay type: cell-based; conditions: Homo sapiens, PA-1
Method in brief: as §1

Row | Compound | IC50 [1] [µM] | IC50 [2] [µM]
1 | Cc1cncc(N2CCN(C(=O)c3nn(C)c(=O)c4ccc(Cl)cc34)CC2)c1 [Compound 245, 6-chloro-2-methyl-4-(4-(5-methylpyridin-3-yl)piperazine-1-carbonyl)phthalazin-1(2H)-one] | > 20 | 10 to 20
2 | CCn1nc(C(=O)N2CCN(c3cc(OC)ncc3F)CC2)c2ccccc2c1=O [Compound 152] | > 20 | > 20
3 | Cn1nc(C(=O)N2CCN(c3cccc4nccn34)CC2)c2ccccc2c1=O [Compound 231, 4-(4-(imidazo[1,2-a]pyridin-5-yl)piperazine-1-carbonyl)-2-methylphthalazin-1(2H)-one] | > 20 | > 20
4 | CCn1nc(C(=O)N2CCN(c3ncc(C)cc3F)CC2)c2ccccc2c1=O [Compound 139] | > 20 | > 20
5 | CCn1nc(C(=O)N2CCN(c3ccc(F)cc3OC(F)(F)F)CC2)c2ccccc2c1=O [Compound 120] | 1 to 10 | 1 to 10
6 | COc1cc(F)cc(N2CCN(C(=O)c3nn(C)c(=O)c4cnccc34)CC2)c1 [Compound 180] | 1 to 10 | ≤ 1
7 | CCn1nc(C(=O)N2CCN(c3cccc(OC)c3F)CC2)c2ccccc2c1=O [Compound 149] | 10 to 20 | 1 to 10
8 | CCn1nc(C(=O)N2CCN(c3c(C)cccc3OC)CC2)c2ccccc2c1=O [Compound 154] | 1 to 10 | 1 to 10
9 | COc1cncc(N2CCN(C(=O)c3nn(C)c(=O)c4ccccc34)CC2)c1 [Compound 35] | 1 to 10 | 1 to 10
10 | CCn1nc(C(=O)N2CCN(c3cccc(OC)c3Br)CC2)c2ccccc2c1=O [Compound 153] | 1 to 10 | 1 to 10
